Patent US6737383B1, “Herbicidal oxadiazolidines” (priority 1999, dated 2004)

Key:
soybean = test: Test B pre/postemergence soybean; type: in vivo, Glycine max
Outline: (§1)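 Herbicidal effect was estimated by eye on a ten-point control scale after plants spent twelve to sixteen days in a greenhouse following soil or foliar treatment. Foliar sprays targeted plants at one to four leaves; all doses were formulated in a non-phytotoxic solvent with surfactant.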

smallflower flatsedge = test: Test B flood test smallflower flatsedge; type: in vivo, Cyperus difformis
Outline: (§2)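 Plants were grown to the 2-leaf stage before treatment with test chemical, then held in a greenhouse for twelve to sixteen days. Injury was visually rated against untreated controls on a 0–10 scale, where 0 is no effect and 10 is complete control.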

cocklebur = test: Test B pre/postemergence cocklebur; type: in vivo, Xanthium strumarium
Outline: as §1

rape = test: Test B pre/postemergence rape; type: in vivo, Brassica napus
Outline: as §1

purple nutsedge = test: Test B pre/postemergence purple nutsedge; type: in vivo, Cyperus rotundus
Outline: as §1

sugar beet = test: Test B pre/postemergence sugar beet; type: in vivo, Beta vulgaris; details: for Plant response rating, Sugarbeets: Rate 250 g/ha
Outline: as §1

giant foxtail = test: Test B pre/postemergence giant foxtail; type: in vivo, Setaria faberii
Outline: as §1

duck salad = test: Test B flood test duck salad; type: in vivo, Heteranthera limosa
Outline: as §2

wild oat = test: Test B pre/postemergence wild oat; type: in vivo, Avena fatua; details: for Plant response rating, Wild oats: Rate 250 g/ha
Outline: as §1

bedstraw = test: Test B pre/postemergence bedstraw; type: in vivo, Galium aparine
Outline: as §1

pigweed = test: Test B pre/postemergence pigweed; type: in vivo, Amaranthus retroflexus
Outline: as §1

surinam grass = test: Test B pre/postemergence surinam grass; type: in vivo, Brachiaria decumbens
Outline: as §1

bamyardgrass = test: Test B flood test barnyardgrass; type: in vivo, Echinochloa crus-galli
Outline: as §2

morningglory = test: Test B pre/postemergence morningglory; type: in vivo, Ipomoea hederacea
Outline: as §1

wheat = test: Test B pre/postemergence wheat; type: in vivo, Triticum aestivum; details: for Plant response rating, Wheat: Rate 250 g/ha
Outline: as §1

blackgrass = test: Test B pre/postemergence blackgrass; type: in vivo, Alopecurus myosuroides
Outline: as §1

[1] = Postemergence, Rate 125 g/ha, scale of 0 to 10 where 0 is no effect and 10 is complete control
[2] = Preemergence, Rate 62 g/ha, scale 0 to 10 (0 no effect, 10 complete control)
[3] = Preemergence, Rate 125 g/ha, scale 0 to 10 (0 no effect, 10 complete control)
[4] = Preemergence, Rate 250 g/ha, scale of 0 to 10 where 0 is no effect and 10 is complete control
[5] = Preemergence, Rate 500 g/ha, scale 0 to 10 (0 no effect, 10 complete control)
[6] = Rate 62 g/ha, Postemergence, scale of 0 to 10 where 0 is no effect and 10 is complete control
[7] = Rate 250 g/ha, Postemergence, scale 0 to 10, 0 is no effect, 10 is complete control
[8] = Rate 500 g/ha, Postemergence, scale 0 to 10, 0 no effect, 10 complete control
[9] = Rate 250 g/ha, headed Pre-emergence (flood test species), scale 0 to 10 (0 no effect, 10 complete control)
[10] = Rate 500 g/ha, headed Pre-emergence (flood test species), scale 0 to 10 (0 no effect, 10 complete control)
[11] = Rate 2000 g/ha, Pre-emergence (as headed), scale 0 to 10
[12] = Postemergence, Rate 250 g/ha, scale 0 to 10, 0 no effect, 10 complete control
[13] = Preemergence, Rate 125 g/ha, 0 is no effect, 10 is complete control
[14] = Preemergence, scale of 0 to 10 where 0 is no effect and 10 is complete control
[15] = Postemergence, scale 0 to 10, 0 is no effect, 10 is complete control
[16] = Rate 1000 g/ha, Pre-emergence (as headed), scale 0 to 10
[17] = Postemergence, Rate 62 g/ha, scale 0 to 10, 0 is no effect, 10 is complete control
[18] = Rate 125 g/ha, Postemergence, scale 0 to 10, 0 no effect, 10 complete control

Compound: CC(C)N(C(=O)n1oc(=O)n(C(C)(C)C)c1=O)c1ccc(Cl)cc1 [Compound 118]
- Soybean plant response rating (soybean; [1]): 1
- Soybean plant response rating (soybean; [2]): 0
- Plant response rating, Soybean (soybean; [3]): 0
- Plant response rating, Soybean (soybean; [4]): 0
- Soybean plant response rating (soybean; [5]): 0
- Soybean plant response rating (soybean; [6]): 1
- Plant response rating, Soybean (soybean; [7]): 2
- Soybean plant response rating (soybean; [8]): 2
- S. Flatsedge plant response rating (smallflower flatsedge; Pre-emergence, Rate 1000 g/ha, scale 0 to 10 (0 no effect, 10 complete control)): 0
- S. Flatsedge plant response rating (smallflower flatsedge; [9]): 0
- Plant response rating, S. Flatsedge (smallflower flatsedge; [10]): 0
- S. Flatsedge plant response rating (smallflower flatsedge; [11]): 0
- Cocklebur plant response rating (cocklebur; [1]): 0
- Cocklebur plant response rating (cocklebur; [12]): 0
- Cocklebur plant response rating (cocklebur; [2]): 0
- Plant response rating, Cocklebur (cocklebur; [3]): 0
- Plant response rating, Cocklebur (cocklebur; [4]): 0
- Cocklebur plant response rating (cocklebur; [5]): 0
- Cocklebur plant response rating (cocklebur; [6]): 0
- Cocklebur plant response rating (cocklebur; [8]): 0
- Rape plant response rating (rape; [1]): 0
- Rape plant response rating (rape; [12]): 0
- Rape plant response rating (rape; [2]): 0
- Plant response rating, Rape (rape; [3]): 0
- Plant response rating, Rape (rape; [4]): 0
- Rape plant response rating (rape; [5]): 0
- Rape plant response rating (rape; [6]): 0
- Rape plant response rating (rape; [8]): 0
- Nutsedge plant response rating (purple nutsedge; [1]): 0
- Nutsedge plant response rating (purple nutsedge; [12]): 0
- Nutsedge plant response rating (purple nutsedge; [2]): 0
- Plant response rating, Nutsedge (purple nutsedge; [3]): 0
- Plant response rating, Nutsedge (purple nutsedge; [4]): 0
- Nutsedge plant response rating (purple nutsedge; [5]): 0
- Nutsedge plant response rating (purple nutsedge; [6]): 0
- Nutsedge plant response rating (purple nutsedge; [8]): 0
- Sugarbeets plant response rating (sugar beet; [1]): 0
- Sugarbeets plant response rating (sugar beet; [2]): 0
- Sugarbeets plant response rating (0 to 10 scale) (sugar beet; [13]): 0
- Plant response rating, Sugarbeets (sugar beet; [14]): 0
- Sugarbeets plant response rating (sugar beet; [5]): 0
- Sugarbeets plant response rating (sugar beet; [6]): 0
- Plant response rating, Sugarbeets (sugar beet; [15]): 0
- Sugarbeets plant response rating (sugar beet; [8]): 2
- Giant foxtail plant response rating (giant foxtail; [1]): 8
- Giant foxtail plant response rating (giant foxtail; [12]): 9
- Giant foxtail plant response rating (giant foxtail; [2]): 9
- Plant response rating, Giant foxtail (giant foxtail; [3]): 10
- Plant response rating, Giant foxtail (giant foxtail; [4]): 10
- Giant foxtail plant response rating (giant foxtail; [5]): 10
- Giant foxtail plant response rating (giant foxtail; [6]): 1
- Giant foxtail plant response rating (giant foxtail; [8]): 9
- Ducksalad plant response rating (duck salad; [9]): 0
- Plant response rating, Ducksalad (duck salad; [10]): 0
- Ducksalad plant response rating (duck salad; [16]): 0
- Ducksalad plant response rating (duck salad; [11]): 0
- Wild oats plant response rating (wild oat; [1]): 0
- Wild oats plant response rating (wild oat; [2]): 0
- Wild oats plant response rating (0 to 10 scale) (wild oat; [13]): 1
- Plant response rating, Wild oats (wild oat; [14]): 6
- Wild oats plant response rating (wild oat; [5]): 6
- Wild oats plant response rating (wild oat; [6]): 0
- Plant response rating, Wild oats (wild oat; [15]): 0
- Wild oats plant response rating (wild oat; [8]): 2
- Bedstraw plant response rating (bedstraw; [17]): 0
- Bedstraw plant response rating (bedstraw; [12]): 0
- Bedstraw plant response rating (bedstraw; [2]): 0
- Plant response rating, Bedstraw (bedstraw; [3]): 0
- Plant response rating, Bedstraw (bedstraw; [4]): 0
- Bedstraw plant response rating (bedstraw; [5]): 0
- Bedstraw plant response rating (bedstraw; [18]): 0
- Redroot pigweed plant response rating (pigweed; [1]): 0
- Redroot pigweed plant response rating (pigweed; [2]): 0
- Plant response rating, Redroot pigweed (pigweed; [3]): 0
- Plant response rating, Redroot pigweed (pigweed; [4]): 2
- Redroot pigweed plant response rating (pigweed; [5]): 10
- Redroot pigweed plant response rating (pigweed; [6]): 0
- Plant response rating, Redroot pigweed (pigweed; [7]): 0
- Redroot pigweed plant response rating (pigweed; [8]): 0
- B. signalgrass plant response rating (surinam grass; [17]): 0
- B. signalgrass plant response rating (surinam grass; [12]): 2
- B. signalgrass plant response rating (surinam grass; [2]): 0
- Plant response rating, B. signalgrass (surinam grass; [3]): 2
- Plant response rating, B. signalgrass (surinam grass; [4]): 3
- B. signalgrass plant response rating (surinam grass; [5]): 10
- B. signalgrass plant response rating (surinam grass; [18]): 0
- B. signalgrass plant response rating (surinam grass; Rate 500 g/ha, Postemergence, scale of 0 to 10 where 0 is no effect and 10 is complete control): 9
- Barnyardgrass plant response rating (bamyardgrass; [9]): 0
- Plant response rating, Barnyardgrass (bamyardgrass; [10]): 1
- Barnyardgrass plant response rating (bamyardgrass; [16]): 3
- Barnyardgrass plant response rating (bamyardgrass; Rate 2000 g/ha, Pre-emergence (as headed), scale 0 to 10, 0 no effect, 10 complete control): 6
- Morningglory plant response rating (morningglory; [1]): 4
- Morningglory plant response rating (morningglory; [12]): 5
- Morningglory plant response rating (morningglory; [2]): 0
- Plant response rating, Morningglory (morningglory; [3]): 0
- Plant response rating, Morningglory (morningglory; [4]): 0
- Morningglory plant response rating (morningglory; [5]): 0
- Morningglory plant response rating (morningglory; [6]): 1
- Morningglory plant response rating (morningglory; [8]): 7
- Wheat plant response rating (wheat; [1]): 0
- Wheat plant response rating (wheat; [2]): 0
- Wheat plant response rating (0 to 10 scale) (wheat; [13]): 0
- Plant response rating, Wheat (wheat; [14]): 0
- Wheat plant response rating (wheat; [5]): 0
- Wheat plant response rating (wheat; [6]): 0
- Plant response rating, Wheat (wheat; [15]): 0
- Wheat plant response rating (wheat; [8]): 2
- Blackgrass plant response rating (blackgrass; [1]): 4
- Blackgrass plant response rating (blackgrass; [12]): 7
- Blackgrass plant response rating (blackgrass; [2]): 0
- Plant response rating, Blackgrass (blackgrass; [3]): 2
- Plant response rating, Blackgrass (blackgrass; [4]): 3
- Blackgrass plant response rating (blackgrass; [5]): 7
- Blackgrass plant response rating (blackgrass; [6]): 0
- Blackgrass plant response rating (blackgrass; [8]): 9
